± gives the expanded uncertainty stated by the source.
Conditions: 298.15 K, 101.33 kPa, Liquid; for viscosity: Capillary tube (Ostwald / Ubbelohde) method; for speed of sound: Sing-around technique in a fixed-path interferometer; for mass density: Vibrating tube method

Row | viscosity [mPa·s] | speed of sound [m/s] | mass density [kg/m3] | Structure (SMILES)
1 | 11.81 ± 0.28 | 1379.4 ± 1.6 | 826.489 ± 0.24 | CCCCCCCCCCO [decan-1-ol]
2 | 4.623 ± 0.1 | 1303.5 ± 1.6 | 815.652 ± 0.24 | CCCCCCO [hexan-1-ol]
3 | 7.68 ± 0.17 | 1347.3 ± 1.6 | 821.877 ± 0.24 | CCCCCCCCO [octan-1-ol]

Row | Structure (SMILES) | viscosity [mPa·s] | speed of sound [m/s] | mass density [kg/m3]
4 | CCCCOCCO [2-butoxyethan-1-ol] | 2.885 ± 0.063 | 1306 ± 1.6 | 896.312 ± 0.24

From the NIST ThermoML archive (doi:10.1016/j.jct.2013.04.021)
